We go through one compound from US20240197742A1, “Therapeutic Combinations of a CD19 Inhibitor and a BTK Inhibitor” (Acerta Pharma B.V., priority 2015, published 2024).

The structures appear in SMILES notation. “Also recorded” adds a separate entry of the source.

One data set concerns CD8+ T cells. As to the kind of experiment: CD8+ T cell viability. The following applies: anti-TCR and anti-CD28 coated wells, neutral conditions, 4 days. It is filed as cell-based. The procedure:
Total T cells were plated on anti-TCR and anti-CD28 coated wells in the presence of both BTK inhibitors. Neutral culture conditions were used that will not polarize T cells to a helper lineage. […] Statistical significance was calculated using the Mann Whitney T-test.

Another data set deals with B cell receptor. Nature of the data set: Whole blood potency: CD69 on CD19+ B cells after anti-human IgD. Type of data set: cell-based. The following applies: blood from four healthy donors, 2 hours with compound, anti-human IgD 10 μg/mL 18 hours, read-out: EC50, CD69 on gated CD19+ B cells in whole blood.
The next data set concerns NK cells. As to the kind of experiment: Whole blood NK cell degranulation with obinutuzumab-opsonised MEC-1 cells. Type of data set: cell-based, human. The following applies: 1 hour pretreatment (10, 1, 0.1 μM), MEC-1 opsonised with obinutuzumab 1 μg/mL, 4 hours, n=3.
A further data set deals with primary CLL cells. Nature of the data set: ADCC chromium release assay, primary CLL targets. It is filed as cell-based, human. The following applies: 1 μM; E:T 25:1; variable rituximab concentrations. The procedure:
All in vitro experiments were performed in triplicate.
ADCC assays were performed as follows. Briefly, target cells (Raji or primary CLL) were labeled by incubation at 37° C. with 100 μCi ^51Cr for 4 hours prior to co-culture with NK cells. Cells were washed, enumerated, and then added in triplicate to prepared 96-well plates containing treated NK cells at an effector:target (E:T) ratio of 25:1. […] Cultures were incubated at 37° C. for 4 hours, and then centrifuged. Supernatants were harvested and ^51Cr release was measured by liquid scintillation counting. All experiments were performed in triplicate.

Experimental for NK cells: Degranulation in whole blood was performed as follows. […] Exponentially growing cells were used. On the day of the experiment, 8 mL of blood was drawn from a normal volunteer into a test tube containing desirudin to obtain a final concentration of 50 μg/mL. A white blood cell (WBC) count of whole blood was performed. […] The ibrutinib control and two blinded BTK inhibitors were diluted in X-VIVO 15 serum-free hematopoietic cell medium (Lonza Group, Ltd.) to concentrations of 200 μM, 20 μM and 2 μM. 170 μL aliquots of unmanipulated whole blood were incubated with 10 μL BTK inhibitors or X-VIVO 15 medium for one hour into a plate. […] The samples were placed in a 5% CO2 incubator for 4 hours at 37° C.
After 4 hours, the samples were mixed gently and 50 μL aliquots were removed from each well and placed in fluorescence-activated cell sorting (FACS) test tubes. A 20 μL aliquot of anti-CD56-APC antibody and anti-CD107a-PE antibody was added. The samples were incubated for 20 minutes at room temperature in the dark. An aliquot of 2 mL of FACS lysing solution (BD Biosceinces) was added. The samples were again incubated for 5 minutes, and then centrifuged at 2000 rpm for 5 minutes. Supernatant was discarded and the cell pellet was resuspended in 500 μL of PBS. The samples were analyzed on the flow cytometer for CD107a^+ NK cells (CD56^+).

Turning to `CC#CC(=O)N1CCC[C@H]1c1nc(-c2ccc(C(=O)Nc3ccccn3)cc2)c2c(N)nccn12` [Formula (2), (S)-4-(8-amino-3-(1-(but-2-ynoyl)pyrrolidin-2-yl)imidazo[1,5-α]pyrazin-1-yl)-N-(pyridin-2-yl)benzamide], the “effect on CD8+ T cell viability” value with CD8+ T cells was “not observed; also recorded: no effect”. Moreover, the EC50 (usually the concentration giving half of the maximal effect) in the data set with B cell receptor was determined as 8.2 nM. In addition, in the data set on NK cells, the “reduction of obinutuzumab-stimulated NK cell degranulation (CD56+/CD107a+ NK cells)” value was “minimal effect”. Moreover, the “effect on rituximab-mediated ADCC, primary CLL / autologous tumor cells” value with primary CLL cells is on record as “not inhibited”.
